Reference: patent US20240358021A1, “COMPOSITION COMPRISING POTASSIUM BICARBONATE AND USE THEREOF FOR TREATING AND/OR PROTECTING CROPS” (SCEA DU CHATEAU MONTROSE, priority 2021, published 2024)

Columns and labels:
[1] = tested on: downy mildew, powdery mildew and vine rot
[2] = tested on: downy mildew (P. viticola) strains PV221, PV413-1, PV1538-1; experiment: In vitro efficacy test on vine leaf discs (Example 2); assay type: cell-based, Plasmopara viticola; details: mean over downy mildew strains; Example 2 method

Row | SMILES | effect on phytopathogens, in words [1] | Mean IC50 (CI 50) [2] [µg/mL] | Mean MIC (CMI) [2] [µg/mL]
1 | O=C([O-])O.[K+] [KHCO3, potassium bicarbonate] | significant | 1000 | 5600
2 | O=C([O-])O.[Na+] [NaHCO3, sodium bicarbonate] |  | 1850 | 10000
